Here are results for six compounds from publication PMC11532494 (Nature Communications, 2024).

SMILES strings stand for the structures. Where “and” joins values, the source holds several entries; their conditions need not be identical. Identical values can stand only once.

In assay [1] the target is PA1409 (Pseudomonas aeruginosa, UniProt Q9I3T5). Nature of the assay: Acetyl-polyamine deacetylase assay (positive control). The class given is biochemical. The following applies: for [acetate] (individual samples): PA1409, acetate released from acetyl-polyamine substrate, Sample 1-2; for [acetate] mean: mean of samples.
PA1409, sequence (Q9I3T5 whole entry): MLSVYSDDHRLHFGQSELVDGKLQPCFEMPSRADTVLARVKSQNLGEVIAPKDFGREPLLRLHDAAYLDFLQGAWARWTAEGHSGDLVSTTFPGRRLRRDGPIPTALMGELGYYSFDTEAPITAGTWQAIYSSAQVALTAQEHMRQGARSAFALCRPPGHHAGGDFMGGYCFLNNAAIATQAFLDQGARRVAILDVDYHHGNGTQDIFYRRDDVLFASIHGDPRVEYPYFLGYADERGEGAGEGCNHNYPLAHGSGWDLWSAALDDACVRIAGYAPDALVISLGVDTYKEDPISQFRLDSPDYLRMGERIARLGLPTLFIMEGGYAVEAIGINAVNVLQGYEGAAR
In assay [2] the target is PsApaH (4) (Pseudomonas sp. M30-35, UniProt A0A1Y0KY79). In words: Acetyl-polyamine deacetylase assay. The assay is classed as biochemical. The following applies: for [acetate] (individual samples): acetate released from acetyl-polyamine substrate, Sample 1-3; for [acetate] mean: mean of samples.
PsApaH (4), sequence (A0A1Y0KY79 1-342 limits assumed): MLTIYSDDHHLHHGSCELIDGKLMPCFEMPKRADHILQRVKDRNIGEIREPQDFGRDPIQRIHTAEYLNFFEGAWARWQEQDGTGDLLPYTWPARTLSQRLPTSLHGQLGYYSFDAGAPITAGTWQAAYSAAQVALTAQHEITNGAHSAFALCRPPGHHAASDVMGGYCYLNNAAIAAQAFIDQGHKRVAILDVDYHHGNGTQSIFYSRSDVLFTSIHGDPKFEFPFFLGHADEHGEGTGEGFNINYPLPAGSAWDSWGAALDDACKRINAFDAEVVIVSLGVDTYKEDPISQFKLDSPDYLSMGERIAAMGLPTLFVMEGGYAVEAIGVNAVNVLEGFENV

As for `CC(=O)NCCCCCN` [N1-acetylcadaverine], the “[acetate] (individual samples)” value in assay [1] (time 5 min) is 3.7616 mM and 3.63 mM; in assay [1] (time 10 min) it was 14.5405 mM and 14.4965 mM; in assay [1] (time 20 min), 22.4156 mM and 22.0637 mM; in assay [1] (time 45 min) it was 23.2955 mM and 23.4715 mM; in assay [2] (time 5 min) it was 2.228 mM and 2.337 mM and 2.011 mM; in assay [2] (time 10 min) it was 5.272 mM and 5.38 mM and 5.337 mM. The “[acetate] (individual samples)” value was 7.446 mM and 7.663 mM and 8.054 mM in assay [2] (time 20 min); 9.337 mM and 10.2283 mM and 9.967 mM in assay [2] (time 45 min). The “[acetate] mean” value is recorded as 3.696 mM in assay [1] (PA1409, time 5 min); 14.5185 mM in assay [1] (PA1409, time 10 min); 22.2396 mM in assay [1] (PA1409, time 20 min); 23.3835 mM in assay [1] (PA1409, time 45 min); 2.192 mM in assay [2] (time 5 min); 5.33 mM in assay [2] (time 10 min). Besides, the “[acetate] mean” value in assay [2] (time 20 min) came out at 7.721 mM; in assay [2] (time 45 min), 9.844 mM.
Turning to `CC(=O)NCCCCN` [N1-acetylputrescine], the “[acetate] (individual samples)” value in assay [1] (time 5 min) is 2.66 mM and 2.46 mM; in assay [1] (time 20 min), 10.76 mM and 10.61 mM; in assay [1] (time 45 min), 15.78 mM and 16.29 mM; in assay [2] (time 5 min), 1.6 mM (2×) and 2.1 mM; in assay [2] (time 10 min), 8.8 mM and 8.3 mM and 8 mM; in assay [2] (time 20 min) it was 12 mM and 13 mM and 12.2 mM. The “[acetate] (individual samples)” value in assay [2] (time 45 min) is 18 mM and 16.6 mM and 17.6 mM. For the same compound, the “[acetate] mean” value in assay [1] (PA1409, time 5 min) was determined as 2.56 mM; in assay [1] (PA1409, time 20 min), 10.685 mM; in assay [1] (PA1409, time 45 min), 16.035 mM; in assay [2] (time 5 min), 1.767 mM; in assay [2] (time 10 min), 8.367 mM; in assay [2] (time 20 min), 12.4 mM. In addition, the “[acetate] mean” value in assay [2] (time 45 min) is given as 17.4 mM.
With `CC(=O)NCCCNCCCCN` [N1-acetylspermidine], the “[acetate] (individual samples)” value in assay [1] (time 5 min) was 1.542 mM and 1.762 mM; in assay [1] (time 10 min), 8.1499 mM and 9.163 mM; in assay [1] (time 20 min), 14.4496 mM and 14.5817 mM; in assay [1] (time 45 min), 15.6831 mM and 14.9782 mM; in assay [2] (time 5 min), 0.06608 mM and 0.08811 mM; in assay [2] (time 10 min), 0.06608 mM and 0.1322 mM. For the same compound, the “[acetate] (individual samples)” value in assay [2] (time 20 min) is 0.3304 mM and 0.3084 mM; in assay [2] (time 45 min) it was 0.2643 mM and 0.3965 mM. Also, the “[acetate] mean” value in assay [1] (PA1409, time 5 min) is listed as 1.652 mM; in assay [1] (PA1409, time 10 min), 8.657 mM; in assay [1] (PA1409, time 20 min), 14.5156 mM; in assay [1] (PA1409, time 45 min), 15.3306 mM; in assay [2] (time 5 min), 0.07709 mM; in assay [2] (time 10 min), 0.09912 mM. The “[acetate] mean” value in assay [2] (time 20 min) amounted to 0.3194 mM; in assay [2] (time 45 min) it was 0.3304 mM.
In the case of `CC(=O)NCCCNCCCCNCCCN` [N1-acetylspermine], the “[acetate] (individual samples)” value in assay [1] (time 5 min) is 4.758 mM and 5.242 mM; in assay [1] (time 10 min) it was 18.4144 mM and 18.3703 mM; in assay [1] (time 20 min) it was 24.4938 mM and 25.2427 mM; in assay [1] (time 45 min) it was 26.7845 mM and 27.0048 mM; in assay [2] (time 5 min), 3.446 mM and 3.815 mM and 3.598 mM; in assay [2] (time 10 min), 5.9022 mM and 5.728 mM and 6.011 mM. Besides, the “[acetate] (individual samples)” value in assay [2] (time 20 min) is 8.6196 mM and 9.685 mM and 8.576 mM; in assay [2] (time 45 min), 12.6414 mM and 13.25 mM and 13.0327 mM. Moreover, the “[acetate] mean” value in assay [1] (PA1409, time 5 min) came out at 5 mM; in assay [1] (PA1409, time 10 min), 18.3923 mM; in assay [1] (PA1409, time 20 min) it was 24.8682 mM; in assay [1] (PA1409, time 45 min), 26.8947 mM; in assay [2] (time 5 min), 3.62 mM; in assay [2] (time 10 min), 5.88 mM. For the same compound, the results for the “[acetate] mean” value in assay [2] (time 20 min) and in assay [2] (time 45 min) were 8.96 mM and 12.9747 mM, respectively.
In the case of `CC(=O)NCCCNCCCCNCCCN` [N1/N12-acetylspermine], the “[acetate] (individual samples)” value in assay [1] (time 5 min) was 3.921 mM and 3.216 mM; in assay [1] (time 10 min), 19.1192 mM and 18.2382 mM; in assay [1] (time 20 min), 34.0974 mM and 33.8331 mM; in assay [1] (time 45 min), 42.3354 mM and 46.7408 mM; in assay [2] (time 5 min), 2.337 mM and 2.446 mM and 2.554 mM; in assay [2] (time 10 min) it was 4.0761 mM and 4.1848 mM and 4.12 mM. Besides, the “[acetate] (individual samples)” value in assay [2] (time 20 min) is 7.467 mM and 7.707 mM and 7.62 mM; in assay [2] (time 45 min), 11.6196 mM and 12.1848 mM and 11.8587 mM. For the same compound, the “[acetate] mean” value in assay [1] (PA1409, time 5 min) is on record as 3.568 mM; in assay [1] (PA1409, time 10 min) it was 18.6787 mM; in assay [1] (PA1409, time 20 min), 33.9653 mM; in assay [1] (PA1409, time 45 min), 44.5381 mM; in assay [2] (time 5 min), 2.446 mM; in assay [2] (time 10 min) it was 4.127 mM. Further, the entries for the “[acetate] mean” value in assay [2] (time 20 min) and in assay [2] (time 45 min) were 7.598 mM and 11.8877 mM, respectively.
Consider `CC(=O)NCCCCNCCCN` [N8-acetylspermidine], for which the “[acetate] (individual samples)” value in assay [1] (time 5 min) was 5.081 mM and 5.477 mM; in assay [1] (time 10 min) it was 19.9519 mM and 19.336 mM; in assay [1] (time 20 min), 23.7355 mM and 22.9876 mM; in assay [1] (time 45 min), 24.7914 mM and 25.3193 mM; in assay [2] (time 10 min), 2.185 mM and 2.098 mM and 1.946 mM; in assay [2] (time 20 min), 3.446 mM and 3.4674 mM and 3.489 mM. For the same compound, the “[acetate] (individual samples)” value in assay [2] (time 45 min) was 4.967 mM and 5.12 mM (2×). For the same compound, the “[acetate] mean” value worked out at 5.279 mM in assay [1] (PA1409, time 5 min); 19.6439 mM in assay [1] (PA1409, time 10 min); 23.3615 mM in assay [1] (PA1409, time 20 min); 25.0553 mM in assay [1] (PA1409, time 45 min); 2.076 mM in assay [2] (time 10 min); 3.4674 mM in assay [2] (time 20 min). Also, the “[acetate] mean” value in assay [2] (time 45 min) was 5.069 mM.
